Structures can show the parent of a compound that is named as a salt.
Key:
[1] = Clarity / appearance of fill composition; assay type: physicochemical; conditions: normal dose of drug in 1 gram
Source text: (§1) Agitation continued until all the SAE-CD dissolved.
Clarity of the fill compositions herein can be determined by visual inspection; however, other known methods for determining the clarity of a fill composition can be performed. Exemplary other methods include transmittance spectrophotometry at a wavelength of 800 nm.

[2] = Shell stability toward aqueous fill composition, statements on soft gelatin capsules; assay type: physicochemical; conditions: for stability provided to capsules: about ≧60% wt.
[3] = Water activity measurement; assay type: physicochemical; conditions: for Water Activity (approximate values): about 20-25° C.
Procedure: Without being held bound to a particular mechanism, it is believed that the increasing the concentration of derivatized cyclodextrin present in the aqueous fill composition results in reduced water activity for the fill composition. The table below provides a summary of water activity versus concentration of cyclodextrin derivatives or some shell-stabilizing materials in water at about 20-25° C., or ambient temperature.
The values detailed above are approximate and can vary from instrument to instrument. These values were determined according to the procedure described herein on a water activity meter described herein. The numbers can also vary within the standard deviation of a particular instrument. It is also possible for the numbers to vary according to the accuracy and reproducibility of the instrument used as well as the method for calibrating the instrument with solution standards of known water activity.
Water activity was measured by placing a sample solution in a small, sealed container and determining the equilibrium humidity and temperature in the container. Instruments such as the HygroLab 3 from Rotronic Instrument Corp. , Huntington, N.Y. were used to measure the water activity. The humidity is determined using a thin film capacitive sensor in the headspace of the container. The temperature is determined using a Pt RTD 100 sensor. From these measurements the activity of water (Aw) is calculated by the instrument. The instrument has an accuracy of about ±0.015 Aw and a repeatability of about ±0.005 Aw. Carefully prepared salt-containing stock solutions of known concentration and water activity were used to calibrate the instrument prior to use.

[4] = Shell stability on exposure to aqueous fill composition (half-shell integrity test, H.S.I.T.); conditions: LFB
Procedure: A study was conducted to determine whether or not complexation of a drug to the SAE-CD alters the ability of the SAE-CD to stabilize the capsule shell against dissolution, erosion, swelling or degradation caused by water in the fill composition enclosed within the capsule shell. Banner's hydrophilic, HFB, and lipophilic, LFB, air fill size 35 oval gelatin capsules were used in this study, which was performed as described below. […] The SAE-CD was slowly added to the water while it was stirring and on a hot plate. Agitation continued until all the SAE-CD dissolved. The SAE-CD was divided by weighing in equal amounts into nine vials (one for each drug). […] The amount of drug added produced a composition that contained a normal dose of drug in 1 gram. The vials were agitated and heated until a solution was obtained or the active was uniformly suspended. […]
Method A: Half-Shell integrity Test (H.S.I.T.)
In a closed container, a portion of a capsule shell is exposed to an aqueous fill composition comprising a known amount of derivatized cyclodextrin, water and optionally one or more other excipients. Observation of changes, or lack thereof, on the exposed portion's size, appearance, shape, dissolution, erosion, degradation, hardness, and/or translucence are recorded periodically over time. A rating scale is used to quantify the overall performance of the capsule portion during the test.

[5] = as above; assay type: physicochemical; conditions: HFB
Source text: as §1

[6] = as above; assay type: physicochemical; conditions: LFC
Procedure: (§2) The same tests were performed on gelatin capsules obtained from CARDINAL HEALTH.

[7] = as above; assay type: physicochemical; conditions: HFC
Procedure: as §2
It has been discovered that PEG has a beneficial effect upon the shell-stabilizing property of an aqueous fill composition comprising SAE-CD. FIG. 6a depicts a ternary graph correlating the concentration of SAE-CD, water and PEG in a fill composition to the H.S.I.T. rating of a soft shell capsule exposed to the fill composition. Aqueous fill solutions comprising differing amounts of PEG, SAE-CD and water were prepared. The stability tests were conducted as described below. The HFC soft gelatin capsules described herein were used. For a composition comprising 40% wt. SBE-CD, 40% wt. water and 20% wt. PEG, the shell was stable for greater than 5 days. For a composition comprising 35% wt. SBE-CD, 35% wt. water and 30% wt. PEG, the shell was stable for greater than 5 days. For a composition comprising 18% wt. SBE-CD, 42% wt. water and 40% wt. PEG, the shell was stable for greater than 5 days. Under each of the conditions tested, the control sample excluded SAE-CD, i.e., containing only water and PEG at the indicated concentration, and failed within 24 hours. About the same results were obtained for the HFB (FIG. 6b), LFB (FIG. 7a) and LFC (FIG. 7b) soft gelatin capsules. Increasing the SAE-CD concentration to values higher than those indicated further increases the shelf-life of the shell or provides an HSIT rating of at least 4. Stabilized aqueous fill composition-containing capsule formulations can be achieved with each capsule if the following fill compositions are used.

[8] = 40% wt. cyclodextrin derivative in water
[9] = 50% wt. cyclodextrin derivative in water
[10] = 60% wt. cyclodextrin derivative in water
[11] = 70% wt. cyclodextrin derivative in water

Molecule: COc1ccccc1OCCNCC(O)COc1cccc2[nH]c3ccccc3c12 (centres unmarked) [Carvedilol]
- Fill composition appearance ([1]; 60% w/w SAE-CD): solution
- Fill composition appearance ([1]; 70% w/w SAE-CD): clear solution

Molecule: C(=C\c1ccccc1)/CN1CCN(C(c2ccccc2)c2ccccc2)CC1 [Cinnarizine]
- Fill composition appearance ([1]; 60% w/w SAE-CD): suspension
- Fill composition appearance ([1]; 70% w/w SAE-CD): suspension

Molecule: CC(C)(C(=O)O)c1ccc(C(O)CCCN2CCC(C(O)(c3ccccc3)c3ccccc3)CC2)cc1 (centres unmarked) [Fexofenadine HCl]
- Fill composition appearance ([1]; 60% w/w SAE-CD): solution
- Fill composition appearance ([1]; 70% w/w SAE-CD): clear solution

Molecule: C[C@]12CCC(=O)C=C1CC[C@@H]1[C@@H]2[C@@H](O)C[C@@]2(C)[C@H]1CC[C@]2(O)C(=O)CO [Hydrocortisone]
- Fill composition appearance ([1]; 60% w/w SAE-CD): clear solution
- Fill composition appearance ([1]; 70% w/w SAE-CD): clear solution

Molecule: COc1ccc2c(c1)c(CC(=O)O)c(C)n2C(=O)c1ccc(Cl)cc1 [Indomethacin]
- Fill composition appearance ([1]; 60% w/w SAE-CD): solution
- Fill composition appearance ([1]; 70% w/w SAE-CD): clear solution

Molecule: C[C@]12CCC(=O)C=C1CC[C@@H]1[C@@H]2CC[C@@]2(C)[C@H]1CC[C@]2(C)O [Methyltestosterone]
- Fill composition appearance ([1]; 60% w/w SAE-CD): clear solution
- Fill composition appearance ([1]; 70% w/w SAE-CD): clear solution

Molecule: CN[C@H]1CC[C@@H](c2ccc(Cl)c(Cl)c2)c2ccccc21 [Sertraline HCl]
- Fill composition appearance ([1]; 60% w/w SAE-CD): solution
- Fill composition appearance ([1]; 70% w/w SAE-CD): clear solution

Molecule: C[C@]12CC[C@H]3[C@@H](CCC4=CC(=O)CC[C@@]43C)[C@@H]1CC[C@@H]2O [Testosterone]
- Fill composition appearance ([1]; 60% w/w SAE-CD): clear solution
- Fill composition appearance ([1]; 70% w/w SAE-CD): clear solution

Molecule: Dimethylcyclodextrin [DMCD, reference compound]
- effect on stability of the shell ([2]; about 42% wt., maximum achievable concentration, FIG. 2): only slightly increased the stability of the shell
- ability to stabilize soft gelatin capsules from water in the fill composition ([2]; at saturation concentration in water, FIG. 4): unable to stabilize
- water activity ([3]; 43% wt. in water, the approximate saturation concentration): approximately 0.996

Molecule: hydroxypropyl cyclodextrin [HP-CD]
- Increase in shell size [4, 8]: >3 × × original
- Observations [4, 8]: Deformed
- Time for failure [4, 8]: 2 days
- Increase in shell size [4, 9]: 2 × × original
- Observations [4, 9]: shape intact
- Time for failure [4, 9]: 4 days
- Increase in shell size [4, 10]: 2 × × original
- Observations [4, 10]: Shape intact
- Time for failure [4, 10]: 7 days
- Increase in shell size [4, 11]: 1.5 × × original
- Observations [4, 11]: Shape intact
- Time for failure [4, 11]: 14 days
- Increase in shell size [5, 8]: >3 × × original
- Observations [5, 8]: Deformed
- Time for failure [5, 8]: 2 days
- Increase in shell size [5, 9]: 2 × × original
- Observations [5, 9]: shape intact
- Time for failure [5, 9]: 4 days
- Increase in shell size [5, 10]: 2 × × original
- Observations [5, 10]: Shape intact
- Time for failure [5, 10]: 7 days
- Increase in shell size [5, 11]: 1.5 × × original
- Observations [5, 11]: Shape intact
- Time for failure [5, 11]: 14 days
- Increase in shell size [6, 8]: >3 × × original
- Observations [6, 8]: Deformed
- Time for failure [6, 8]: 2 days
- Increase in shell size [6, 9]: 2 × × original
- Observations [6, 9]: Shape intact
- Time for failure [6, 9]: 4 days
- Increase in shell size [6, 10]: 2 × × original
- Observations [6, 10]: Slight deformity
- Time for failure [6, 10]: 7 days
- Increase in shell size [6, 11]: 1.5 × × original
- Observations [6, 11]: Shape intact
- Time for failure [6, 11]: 14 days
- Increase in shell size [7, 8]: >3 × × original
- Observations [7, 8]: Deformed
- Time for failure [7, 8]: 2 days
- Increase in shell size [7, 9]: 2 × × original
- Observations [7, 9]: shape intact
- Time for failure [7, 9]: 4 days
- Increase in shell size [7, 10]: 2 × × original
- Observations [7, 10]: Slight deformity
- Time for failure [7, 10]: 7 days
- Increase in shell size [7, 11]: 1.5 × × original
- Observations [7, 11]: Shape intact
- Time for failure [7, 11]: 14 days
- shelf-life of soft gelatin capsules ([2]; 60% wt. or more based upon total weight of water and HP-CD): at least one week
- stability provided to capsules ([2]; LFB and LFC soft gelatin capsules as printed, FIG. 2): at least one week stability
- stability provided to capsules ([2]; LFB and LFC soft gelatin capsules, FIG. 1): at least a one-week stability
- Water Activity (approximate values) ([3]; 10 % w/w in water): ~0.99
- Water Activity (approximate values) ([3]; 20 % w/w in water): ~0.99
- Water Activity (approximate values) ([3]; 30 % w/w in water): ~0.98
- Water Activity (approximate values) ([3]; 40 % w/w in water): ~0.98
- Water Activity (approximate values) ([3]; 50 % w/w in water): ~0.97
- Water Activity (approximate values) ([3]; 60 % w/w in water): ~0.94
- Water Activity (approximate values) ([3]; 70 % w/w in water): ~0.93

From US7829114B2, “Capsules containing aqueous fill compositions stabilized with derivatized cyclodextrin” (CyDex Pharmaceuticals, Inc., priority 2002, dated 2010)
